The SangsterLogP compilation

assay: method code SF-AS, from DOI: 10.1246/bcsj.68.782; details: pH 2.0

Cc1ccc(C(=O)O)cc1[N+](=O)[O-] and Cc1cc(C(=O)O)ccc1[N+](=O)[O-] are within 0.2 log units of each other in logD: 2.35 for the first, 2.42 for the second.

First: O=C(O)c1cc(Cl)cc(Cl)c1
Second: O=C(O)c1ccc(Cl)cc1Cl
The logD of the first is higher: 3.29 for the first, 2.76 for the second.

First: O=C(O)c1cc(O)c(Br)c(O)c1
Second: COc1cc(C(=O)O)cc(OC)c1O
The logD of the first is higher: 1.75 for the first, 1.13 for the second.

COc1cc(C(=O)O)cc(OC)c1OC and COc1c([N+](=O)[O-])cc(C(=O)O)cc1[N+](=O)[O-] are within 0.2 log units of each other in logD: 1.66 for the first, 1.73 for the second.

Compared with Cc1ccc([N+](=O)[O-])c(C(=O)O)c1, Cc1c(C(=O)O)cccc1[N+](=O)[O-] is higher in logD: 1.63 for the first, 2.16 for the second.

First: O=C(O)c1cccc(F)c1F
Second: Cc1ccc(C(=O)O)c(O)c1
The logD of the first is lower: 1.88 for the first, 2.8 for the second.

For O=C(O)c1ccc(Cl)c([N+](=O)[O-])c1, the logD was 2.53.
